We go through 2 molecules from patent US20230122911A1, “FORMULATIONS OF ENZALUTAMIDE” (Astellas Pharma Inc., priority 2012, published 2023).

A short description of series [1]: Glass transition temperature (Tg) by modulated DSC. It counts as physicochemical. As for the experimental part: Below Tg, an amorphous material is said to be in a “glassy” state in which molecular mobility is severely restricted. […] Glass transition temperatures Tg were determined for amorphous enzalutamide, and for spray-dried dispersions (SDDs) of enzalutamide with HPMCAS-M or PVP-VA64, at <5% and 75% relative humidity (RH) Tgs were determined by modulated differential scanning calorimetry (mDSC), utilizing the following protocol. Samples (about 5 mg) were equilibrated at the desired RH overnight in an environmental chamber at ambient temperature. The samples were then loaded into pans and sealed inside the environmental chamber. The samples were analyzed on a Q1000 mDSC (TA Instruments, New Castle, Delaware). Samples were typically scanned over the temperature range of -40° C. to 180° C., at a scan rate of 2.5° C./min, and a modulation rate of ±1.5° C./min. […] The Tg was calculated based on half height.
HME dispersions were produced using dry-powder blends of enzalutamide and HPMCAS-M or PVP VA at three different drug loadings: 25%A, 40%A, and 60%A. Using a volumetric powder feeder, the blends were fed at a controlled rate to a 7.5 \-mm MP&R™ Model ME7.5 Twin-Screw Extruder (MP&R, Hackensack, NJ). […] Table 11.1 presents the extrusion temperature, the crystallinity of the dispersion (amorphous is desired), and the glass transition temperature (Tg) measured by DSC.

Series [2] is described as follows: Microcentrifuge dissolution before and after suspension for 2 hr in aqueous 0.5% methylcellulose. It counts as physicochemical. As for the experimental part:
Drugs and drug formulations are sometimes dosed as aqueous suspensions, particularly for pediatric patients. The ability of various enzalutamide SDDs to retain their ability to maintain drug supersaturation in vitro was assessed by using the microcentrifuge dissolution test to measure drug dissolution after suspension in 0.5% methylcellulose in water for 2 hours. Methylcellulose is a standard viscosifying suspending agent which is used to maintain drug particles in suspension in oral suspension dosage forms. The table below presents in vitro dissolution performance before and after suspension in 0.5% methylcellulose.

The nature of series [3]: Relative bioavailability of amorphous drug and HME dispersions in rats (Example 13). It counts as in vivo, rat. Conditions: oral gavage 20 mg/kg; for Mean AUC0-inf: rat plasma; for Bioavailability (Mean AUC0-inf/IV Mean AUC0-inf): rat. As for the experimental part: Six groups of jugular vein-cannulated CD® rats (n=6 per group) were dosed six enzalutamide formulations by oral gavage, at a dose of 20 mg/kg, in a volume of 2 ml/kg. with the exception of one group which was dosed intravenously via tail vein. Blood samples were obtained at 1, 3, 6, 12, 24, 36, 48, 60, and 72 hr post-dose.
(§1) The analytes, enzalutamide, MDPC0002, and MDPC0001 and internal standards (IS), N-^13CD3-enzalutamide, MDPC0002-^13CD3. and MDPC0001-^13CD3 were extracted from 0.050 µL of rat plasma by a liquid-liquid extraction procedure. Internal standard working solution (25.0 µL) was added to all wells except the matrix blank. A 25.0 µL-volume of acetonitrile was added all matrix blank samples. After adding 200 µL of 5% sodium bicarbonate in water buffer solution, the plate was vortexed for approximately 10 seconds. A Tomtec Quadra 96-well pipettor was used to add 1.050 mL of methyl tert-butyl ether (MTBE) to all wells, mixed, and approximately 1.00 mL of the organic layer was transferred to a clean 96-well plate. The samples were evaporated under heated nitrogen and reconstituted with 250 µL of 0.1% formic acid in methanol/water (40:60, v/v). The plate was covered and gently vortexed for approximately 10 seconds. The extracts were chromatographed under reverse phase conditions on an ACE 5 C18 HPLC 5 µm, 2.1 x 30 mm column. The compounds were detected and quantified by tandem mass spectrometry in positive ion mode on an MDS Sciex API 3000 equipped with a Turbo IONSPRAY® probe. Calibration curves were obtained by performing a linear regression (weighted ⅟x^2) of the data from the calibration standards.
Plasma enzalutamide concentration vs. time curves were prepared, and values for the following parameters were determined. Cmax is the highest enzalutamide concentration observed for each rat. Tmax is the time that Cmax is first achieved. AUC0-72 is the area under the plasma enzalutamide concentration vs. time plot out to 72 hr post-dosing.

A short description of series [4]: Crystallinity by PXRD (and DSC). The format is physicochemical. Conditions: after spray-drying.
A short description of series [5]: Relative bioavailability of amorphous drug and spray-dried dispersions in rats (Example 12). The format is in vivo. Conditions: oral gavage 20 mg/kg, mean ± standard deviation. On the procedure:
Five groups of jugular vein-cannulated CD® rats (n=6 per group) were dosed five enzalutamide formulations by oral gavage, at a dose of 20 mg/kg, in a volume of 2 ml/kg. Blood samples were obtained at 1, 3, 6, 12, 24, 36, 48, 60, and 72 hr post-dose.
as §1, with “analytes, enzalutamide.” for “analytes, enzalutamide,”, “N-^13CD3-enzalutamide, MDPC0002-^13CD3,” for “N-^13CD3-enzalutamide, MDPC0002-^13CD3.”, “[…],” for “0.050 µL”, “add […]” for “add 1.050”, “methanol/water (40:60.” for “methanol/water (40:60,”
Plasma enzalutamide concentration vs. time curves were prepared, and values for the following parameters were determined. Cmax max is the highest enzalutamide concentration observed for each rat. Tmax is the time that Cmax is first achieved. AUC0-72 is the area under the plasma enzalutamide concentration vs. time plot out to 72 hr post-dosing.

The mark [6] stands for this setting: 0 hr, before suspension in 0.5% methylcellulose.
The mark [7] stands for this setting: after suspension for 2 hr in aqueous 0.5% methylcellulose.
[8] abbreviates: listed as Spray-dried amorphous drug.
Where [9] appears, read: rat plasma, listed as Spray-dried amorphous drug.

The structures appear in SMILES notation.

In general, Cmax refers to the peak of the concentration-time curve. Usually Tmax stands for the time from dosing to the highest level.

In the case of `CNC(=O)c1ccc(N2C(=S)N(c3ccc(C#N)c(C(F)(F)F)c3)C(=O)C2(C)C)cc1F` [Amorphous enzalutamide, 4-{3-[4-cyano-3-(trifluoromethyl)phenyl]-5,5-dimethyl-4-oxo-2-sulfanylideneimidazolidin-1-yl}-2-fluoro-N-methylbenzamide], in series [1] (75% RH), the Tg amounted to 64.0 °C. For the same molecule, the Tg in series [1] (<5% RH) amounted to 88.5 °C. In addition, in series [2] (setting [6]), the AUC90 is 8,900 min·mcg/ml and the “Cmax 90” value stood at 110 µg/mL. Also, in series [2] (setting [7]), the AUC90 is given as 8,800 min·mcg/ml, the “AUC90% of 0 Hr Value” was determined as 99% and the “Cmax 90” value is 100 µg/mL. In addition, in series [3] (setting [8]), the “Mean AUC0-inf” value is 132000 ng·h/mL and the “Bioavailability (Mean AUC0-inf/IV Mean AUC0-inf)” value was 57.1%. For the same molecule, the “crystallinity by PXRD” value in series [4] was “completely amorphous”. Besides, in series [5] (setting [9]), the “AUC 0-72” value is 121000 ± 16400 ng·h/mL, the Cmax is 7.14 ± 0.97 µg/mL and the Tmax worked out at 2.55 ± 0.57 h.
For the molecule `CNC(=O)c1ccc(N2C(=S)N(c3ccc(C#N)c(C(F)(F)F)c3)C(=O)C2(C)C)cc1F` [Control 1, 4-{3-[4-cyano-3-(trifluoromethyl)phenyl]-5,5-dimethyl-4-oxo-2-sulfanylideneimidazolidin-1-yl}-2-fluoro-N-methylbenzamide], in series [3], the “Mean AUC0-inf” value turned out to be 62600 ng·h/mL and the “Bioavailability (Mean AUC0-inf/IV Mean AUC0-inf)” value was found to be 27.1%. Moreover, in series [5] (CD, rat, plasma, po, 20 mg/kg, read-out: AUC 0-72), the AUC(0-t) was 72700 ± 18400 ng·h/mL. In addition, in series [5] (rat plasma), the Cmax came to 3.53 ± 0.66 µg/mL and the Tmax came to 6.05 ± 0.92 h.
